Measurements from article PMC6874683, “Pyrrothiogatain acts as an inhibitor of GATA family proteins and inhibits Th2 cell differentiation in vitro” (Scientific Reports, 2019).

Key:
[1] = tested on: Th2 cell differentiation; assay: Intracellular cytokine staining, naive CD4+ T cells under Th2 conditions; type: cell-based, mouse; conditions: 30 and 80 µM, 5 days
Procedure: (§1) C57BL/6 mice were purchased from Clea (Clea Japan, Inc., Tokyo, Japan). Total CD4^+ T cells isolated from mouse spleen were prepared using a FITC anti-mouse CD4 antibody (Cat#100510, RM4–5, BioLegend) and anti-FITC-microbeads (Cat#130-097-050, Miltenyi Biotec). Naive CD4^+ T cells (CD44^low, CD62L^high) were prepared using a MojoSort Mouse CD4 T cell Isolation Kit (Cat#480033), BioLegend). Biotinylated anti-CD44 (Cat#103004, IM7) and anti-CD25 antibodies (Cat#102004, PC61) were purchased from BioLegend. CD4^+ T cells (7.5 × 10^5) were stimulated using immobilized anti-TCR-β mAb (3 µg/mL, H57–597, BioLegend) plus an anti-CD28 mAb (1.0 µg/mL, cat#40–0281, TONBO Biosciences) for 2 days, and then, the cells were further expanded under similar conditions for an additional 3 days. IL-2 conditions: IL-2 (10 ng/mL, Pepro Tech); Th2 conditions: IL-2 (10 ng/mL, Pepro Tech), IL-4 (1 ng/mL, Pepro Tech), and anti-IFN-γ mAb (2.5 µg/mL, cat#40–731, TONBO Biosciences). […]
(§2) The in vitro differentiated CD4^+ T cells were stimulated using an immobilized anti-TCR-β mAb (3 µg/ml, H57–597, BioLegend) for 6 h in the presence of monensin (2 µM). […] Flow cytometry was performed using a Gallios Flow Cytometer instrument (Beckman Coulter) and a FACS Caliber instrument (BD Biosciences) and the results were analysed using the FlowJo software program (Tree Star, Ashland, OR, USA).

[2] = tested on: Th1 cell differentiation; assay: Th1 cell differentiation, naive CD4+ T cells under Th1 conditions; type: cell-based, mouse; conditions: 80 µM, five days
Procedure: as §1, with “days.” for “days. IL-2 conditions: IL-2 (10 ng/mL, Pepro Tech); Th2 conditions: IL-2 (10 ng/mL, Pepro Tech), IL-4 (1 ng/mL, Pepro Tech), and anti-IFN-γ mAb (2.5 µg/mL, cat#40–731, TONBO Biosciences).”
as §2, with “USA). […]” for “USA).”
(B) Cytokine production induced in the pyrrothiogatain-treated Th1 cells shown in panel (A) was determined by ELISA.

SMILES: Cc1ccc(C)n1-c1ccsc1C(=O)O [Pyrrothiogatain, 3-(2,5-dimethyl-1H-pyrrol-1-yl)thiophene-2-carboxylic acid]
- Generation of IL-4-, IL-5-, and IL-13-producing Th2 cells [1]: repressed
- Generation of IFN-γ and IL-2 producing Th1 cells [2]: modestly increased
